# From patent US20240207304A1, “Combination Therapies Comprising C/EBP Alpha saRNA” (MiNA Therapeutics Limited, priority 2021, published 2024)
# Tested on: NAFLD and IR genes
# Experiment: Effects on NAFLD and IR gene expression in the liver
# Excerpt: Abbreviations in Table 4-1 and Table 4-2: NAFLD: non-alcoholic fatty liver disease; IR: insulin resistance; DNL: de novo lipogenesis; FA: fatty acid; TG: triglycerides; LPL: lipoprotein lipase; HP: hepatic lipase; CHOL: cholesterol.
smiles,measurement,value
O=C1[C@H](CC[C@H](O)c2ccc(F)cc2)[C@@H](c2ccc(O)cc2)N1c1ccc(F)cc1 [Ezetimibe],Effect on ACACA (ACC1),minor up
same,Effect on ACACB (ACC2),up
same,Effect on APOC3,down
same,Effect on CD36,minor down
same,Effect on ChREBP (MLX1PL),up
same,Effect on DGAT2,minor down
same,Effect on FAS,down
same,Effect on LDLR,minor down
same,Effect on MTP (MTTP1),up
same,Effect on PPARα,up
same,Effect on PPARγ,up
same,Effect on PPARγ-CoA 1α,up
same,Effect on PPARγ-CoA 1β (PERC),up
same,Effect on SREBP-1c,up
same,Effect on mTOR,no change
